Two compounds from patent US12109272B2, “Intermittent dosing of glucocorticoid receptor modulators for the treatment of ovarian and other cancers” (Corcept Therapeutics Incorporated, priority 2021, dated 2024) can be followed below.

Holding throughout (type): in vivo, human
Series [1] concerns GR-inducible genes. Briefly: Separate healthy volunteer study: genes induced in whole blood by prednisone. Conditions: single dose, healthy volunteers.
Series [2] in a line: Phase 2 study: safety and tolerability (adverse events). To be noted: relacorilant (intermittent or continuous) + nab-paclitaxel compared to nab-paclitaxel monotherapy; data as of Mar. 22, 2021. How it is done: Independent comparisons for the intermittent versus (vs.) comparator study arms and the continuous vs. comparator arms were performed. The primary endpoint of the study was progression-free survival as determined by the Response Evaluation Criteria in Solid Tumors (“RECIST”) version 1.1 guidelines (available via the World Wide Web at the following URL: ctep.cancer.gov/protocolDevelopment/docs/recist_guideline.pdf). Secondary endpoints included objective response rate, duration of response, overall survival, and safety of the combined administration of nab-paclitaxel and relacorilant. All efficacy objectives and corresponding endpoints listed below, assessment for response and disease progression were assessed according to RECIST v1.1.
Relacorilant treatment was safe, for both the intermittent and continuous groups, and was well tolerated by the patients. […] Safety and tolerability of the three treatment regimens is illustrated in FIG. 8 (data as of Mar. 22, 2021). There were fewer serious (grade ≥3) peripheral neuropathies in the intermittent group than the comparator group. […]

The nature of series [3]: Phase 2 study: exposures (AUC, Cmax) of relacorilant and nab-paclitaxel. To be noted: patients. How it is done:
The exposures and peak concentrations of both nab-paclitaxel and of relacorilant were measured.

Take `C[C@]12C=CC(=O)C=C1CC[C@@H]1[C@@H]2C(=O)C[C@@]2(C)[C@H]1CC[C@]2(O)C(=O)CO` [prednisone]: the “number of genes induced” value in series [1] came to 239.

In the case of `Cn1cc(S(=O)(=O)N2CCC3=Cc4c(cnn4-c4ccc(F)cc4)C[C@]3(C(=O)c3cc(C(F)(F)F)ccn3)C2)cn1` [relacorilant, (R)-(1-(4-fluorophenyl)-6-((1-methyl-1H-pyrazol-4-yl)sulfonyl)-4,4a,5,6,7,8-hexahydro-1H-pyrazolo[3,4-g]isoquinolin-4a-yl)(4-(trifluoromethyl)pyridin-2-yl)methanone], the safety and tolerability result in series [2] is “safe”. For the same compound, in series [3], the “exposures (AUC and Cmax) versus safety endpoints, presence or absence of the adverse events” value was “largely overlapping exposures”. Besides, the variability of exposures result in series [3] (all groups, AUC and Cmax) is recorded as “large variability”.
